This is an account of results in ChEMBL document CHEMBL1139308, “Identification and synthesis of 2,7-diamino-thiazolo[5,4-d]pyrimidine derivatives as TRPV1 antagonists” (Bioorg Med Chem Lett, 2009).

Values after ≈ are worked out from the molar mass of the structure shown.

Series [1] in a line: Half life in fasted Sprague-Dawley rat at 0.5 mg/kg, iv and 2 mg/kg, po. It counts as ADME, organism-based. To be noted: in vivo.
Series [2] in a line: Volume of distribution at steady state in fasted Sprague-Dawley rat at 0.5 mg/kg, iv and 2 mg/kg, po. As to conditions: in vivo, read-out: Vdss. It counts as ADME, organism-based.
In series [3] the target is Transient receptor potential cation channel subfamily V member 1 (Homo sapiens, UniProt Q8NER1). Briefly: Antagonist activity at human TRPV1 expressed in HEK293 cells assessed as inhibition of capsaicin-induced calcium flux. It counts as functional, cell-based. For orientation: Calcium assays in cells follow changes in intracellular calcium, usually with a dye or a luminescent sensor.
Chain of Transient receptor potential cation channel subfamily V member 1 (Homo sapiens, UniProt Q8NER1) (Q8NER1 whole entry): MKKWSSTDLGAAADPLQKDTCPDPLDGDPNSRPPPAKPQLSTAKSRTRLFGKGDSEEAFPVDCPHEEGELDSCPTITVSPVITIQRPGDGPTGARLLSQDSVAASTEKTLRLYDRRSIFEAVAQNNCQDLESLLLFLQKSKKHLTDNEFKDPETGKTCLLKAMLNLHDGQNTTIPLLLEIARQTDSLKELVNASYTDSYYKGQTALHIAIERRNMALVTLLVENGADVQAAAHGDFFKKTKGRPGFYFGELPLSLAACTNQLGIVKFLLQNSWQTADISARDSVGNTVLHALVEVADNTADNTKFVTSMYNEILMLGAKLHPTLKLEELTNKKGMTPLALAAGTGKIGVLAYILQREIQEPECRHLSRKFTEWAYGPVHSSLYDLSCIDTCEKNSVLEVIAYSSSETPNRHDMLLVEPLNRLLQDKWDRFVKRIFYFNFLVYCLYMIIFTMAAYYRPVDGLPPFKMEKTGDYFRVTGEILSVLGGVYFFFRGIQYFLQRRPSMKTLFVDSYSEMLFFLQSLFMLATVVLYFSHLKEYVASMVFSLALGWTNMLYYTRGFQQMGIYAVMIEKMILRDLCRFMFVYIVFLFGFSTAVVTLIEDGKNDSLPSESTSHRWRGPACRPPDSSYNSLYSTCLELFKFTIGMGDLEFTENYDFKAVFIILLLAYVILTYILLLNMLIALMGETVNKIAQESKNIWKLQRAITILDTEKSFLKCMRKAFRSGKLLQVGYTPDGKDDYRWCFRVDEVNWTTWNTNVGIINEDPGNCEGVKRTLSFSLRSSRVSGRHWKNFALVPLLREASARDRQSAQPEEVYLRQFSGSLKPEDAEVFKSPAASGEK

Series [4] can be described thus: Clearance in fasted Sprague-Dawley rat at 0.5 mg/kg, iv and 2 mg/kg, po. It counts as ADME, organism-based. As to conditions: in vivo.
The target of series [5] is Transient receptor potential cation channel subfamily V member 1 (Rattus norvegicus, UniProt O35433). In words: Antagonist activity at rat TRPV1 expressed in HEK293 cells assessed as inhibition of capsaicin-induced calcium flux. The series is classed as functional, cell-based.
Chain of Transient receptor potential cation channel subfamily V member 1 (Rattus norvegicus, UniProt O35433) (O35433 whole entry): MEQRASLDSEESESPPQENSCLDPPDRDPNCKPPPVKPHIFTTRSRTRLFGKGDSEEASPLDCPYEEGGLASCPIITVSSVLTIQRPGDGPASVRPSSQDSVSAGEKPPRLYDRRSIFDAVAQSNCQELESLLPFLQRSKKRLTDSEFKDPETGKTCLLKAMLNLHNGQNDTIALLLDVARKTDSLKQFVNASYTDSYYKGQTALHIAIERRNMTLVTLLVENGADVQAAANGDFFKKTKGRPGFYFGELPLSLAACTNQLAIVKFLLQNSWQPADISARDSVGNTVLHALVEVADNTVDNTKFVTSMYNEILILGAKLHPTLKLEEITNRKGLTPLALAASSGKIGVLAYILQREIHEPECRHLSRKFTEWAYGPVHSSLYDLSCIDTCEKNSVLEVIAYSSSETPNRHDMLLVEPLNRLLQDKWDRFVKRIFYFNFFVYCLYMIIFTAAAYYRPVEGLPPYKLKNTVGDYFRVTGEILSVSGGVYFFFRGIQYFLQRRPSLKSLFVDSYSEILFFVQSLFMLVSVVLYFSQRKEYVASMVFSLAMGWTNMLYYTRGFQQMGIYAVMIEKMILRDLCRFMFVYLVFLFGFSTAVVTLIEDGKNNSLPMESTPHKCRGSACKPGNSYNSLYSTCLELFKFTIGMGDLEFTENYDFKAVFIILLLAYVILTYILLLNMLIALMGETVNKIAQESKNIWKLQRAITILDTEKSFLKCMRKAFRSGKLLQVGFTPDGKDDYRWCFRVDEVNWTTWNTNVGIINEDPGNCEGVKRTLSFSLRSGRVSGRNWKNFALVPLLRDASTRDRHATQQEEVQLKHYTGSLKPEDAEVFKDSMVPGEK
The subject of series [6] is Rattus norvegicus. In words: AUC (infinity) in fasted Sprague-Dawley rat at 2 mg/kg, po. It counts as ADME, organism-based, Plasma. To be noted: in vivo. Further details: time infinity, dose 2 mg/kg, route oral.
Series [7] is described as follows: Cmax in fasted Sprague-Dawley rat at 2 mg/kg, po. As to conditions: in vivo. Further details: dose 2 mg/kg, route oral. It counts as ADME, organism-based.
A short description of series [8]: Bioavailability in fasted Sprague-Dawley rat at 0.5 mg/kg, iv and 2 mg/kg, po. The series is classed as ADME, organism-based. As to conditions: in vivo.
Series [9] is described as follows: Tmax in fasted Sprague-Dawley rat at 2 mg/kg, po. To be noted: in vivo. The series is classed as ADME, organism-based. Further details: dose 2 mg/kg, route oral.
Series [10] can be described thus: Aqueous solubility in fasted-state simulated intestinal fluid at pH 6.8 after 3 days by HPLC. The series is classed as physicochemical.
Series [11] can be described thus: Aqueous solubility in simulated gastric fluid at pH 1.2 after 3 days by HPLC. It counts as physicochemical.

As usually defined, the half-life is the time needed for the level to fall by half in the phase considered. The low end stands for rapid decline, the high end for slow decline. One may read the IC50 as the concentration that gives 50% inhibition. With `CS(=O)(=O)c1ccc(Nc2ncnc3sc(Nc4c(Cl)cccc4Cl)nc23)cc1`, the half-life in [1] is 1.2 h. For the same compound, the Vd in [2] is 2.2 L/kg. Also, the values for the IC50 in [3] and in series [5] were 5 nM and 3 nM, respectively. The compound also had a clearance in series [4] of 60 mL/min/kg.
In the case of `FC(F)(F)c1ccc(Nc2ncnc3sc(Nc4ccccc4Cl)nc23)cc1`, the IC50 came to 64 nM in series [3] and 32 nM in series [5].
The like results for `NCc1cc(Cl)c(Nc2nc3c(Nc4ccc(C(F)(F)F)cc4)ncnc3s2)c(Cl)c1` were, in that order, 125 nM and 54 nM.
On the same counts, the results for `FC(F)(F)c1ccc(Nc2nc(N3CCOCC3)nc3sc(Nc4c(Cl)cccc4Cl)nc23)cc1` are 30 nM and 16 nM.
On the same counts, the results for `FC(F)(F)c1ccccc1Nc1ncnc2sc(Nc3c(Cl)cccc3Cl)nc12` are over 5000 nM and over 5000 nM.
Take `CN(C)c1nc(Nc2ccc(C(F)(F)F)cc2)c2nc(Nc3c(Cl)cccc3Cl)sc2n1`: the values for the IC50 in series [3] and in series [5] were 59 nM and 43 nM, respectively.
For `CC(C)(C)c1ccc(Nc2ncnc3sc(Nc4c(Cl)cccc4Cl)nc23)cc1`, in series [3], the IC50 amounted to 11 nM.
For the compound `CC(C)N1CCN(c2nc(Nc3ccc(C(F)(F)F)cc3)c3nc(Nc4c(Cl)cccc4Cl)sc3n2)CC1`, in [5], the IC50 came out at 119 nM.
Take `NC(=O)c1ccc(Nc2ncnc3sc(Nc4c(Cl)cccc4Cl)nc23)cc1`: the IC50 in series [3] and in series [5] was over 5000 nM in each case.
As to `FC(F)(F)c1cccc(Nc2ncnc3sc(Nc4c(Cl)cccc4Cl)nc23)c1`, the IC50 stood at 206 nM in [3] and 192 nM in series [5].
For the compound `FC(F)(F)c1ccc(Nc2ncnc3sc(Nc4ccccc4)nc23)cc1`, the concentration for half-maximal inhibition (IC50) in series [3] is over 5000 nM.
Turning to `CN(c1nc2c(Nc3ccc(C(F)(F)F)cc3)ncnc2s1)c1c(Cl)cccc1Cl`, the IC50 in [3] is 502 nM; in series [5], 540 nM.
In the case of `CSc1ccc(Nc2ncnc3sc(Nc4c(Cl)cccc4Cl)nc23)cc1`, the figures for the IC50 in series [3] and in series [5] were 96 nM and 12 nM, respectively.
On the same counts, the results for `CCN(CC)c1nc(Nc2ccc(C(F)(F)F)cc2)c2nc(Nc3c(Cl)cccc3Cl)sc2n1` are 48 nM and 34 nM.
In the case of `FC(F)(F)c1ccc(Nc2ncnc3sc(Nc4cccc(C(F)(F)F)c4)nc23)cc1`, the IC50 in series [3] and in series [5] was over 5000 nM in each case.
In the case of `N#Cc1cc(Cl)c(Nc2nc3c(Nc4ccc(C(F)(F)F)cc4)ncnc3s2)c(Cl)c1`, the IC50 was found to be 95 nM in series [3] and 53 nM in series [5].
Take `CC(C)(C(=O)O)c1ccc(Nc2ncnc3sc(Nc4c(Cl)cccc4Cl)nc23)cc1`: the IC50 in series [3] worked out at 31 nM.
For the compound `NS(=O)(=O)c1ccc(Nc2ncnc3sc(Nc4c(Cl)cccc4Cl)nc23)cc1`, the IC50 in series [3] was over 5000 nM; in series [5], 590 nM.
In the case of `FC(F)(F)c1ccc(Nc2nc3c(Nc4ccc(C(F)(F)F)cc4)ncnc3s2)cc1`, the IC50 in series [3] was over 5000 nM.
As for `FC(F)(F)c1ccc(Nc2nc(N3CCC3)nc3sc(Nc4c(Cl)cccc4Cl)nc23)cc1`, the results for the IC50 in series [3] and in series [5] were 59 nM and 25 nM, respectively.
On the same counts, the results for `FC(F)(F)c1ccc(Nc2ncnc3sc(Nc4ncccc4C(F)(F)F)nc23)cc1` are over 5000 nM and over 5000 nM.
On the same counts, the results for `FC(F)(F)c1ccc(Nc2nc(N3CCNCC3)nc3sc(Nc4c(Cl)cccc4Cl)nc23)cc1` are over 5000 nM and over 5000 nM.
The like results for `NC(=O)c1cc(Cl)c(Nc2nc3c(Nc4ccc(C(F)(F)F)cc4)ncnc3s2)c(Cl)c1` were, in that order, 69 nM and 57 nM.
`O=C(O)c1cc(Cl)c(Nc2nc3c(Nc4ccc(C(F)(F)F)cc4)ncnc3s2)c(Cl)c1`: the IC50 in series [3] and in series [5] was over 5000 nM each time.
For `Cc1ccccc1Nc1nc2c(Nc3ccc(C(F)(F)F)cc3)ncnc2s1`, the IC50 in [3] amounted to 51 nM; in [5] it was 14 nM.
The like results for `O=C(c1ccc(Nc2ncnc3sc(Nc4c(Cl)cccc4Cl)nc23)cc1)N1CCCC1` were, in that order, over 5000 nM and over 5000 nM.
The like results for `CC(C)c1ccc(Nc2ncnc3sc(Nc4c(Cl)cccc4Cl)nc23)cc1` were, in that order, 10 nM and 3 nM.
On the same counts, the results for `FC(F)(F)c1ccc(Nc2cccc3sc(Nc4c(Cl)cccc4Cl)nc23)cc1` are over 5000 nM and over 5000 nM.
Turning to `O=C(O)c1ccc(Nc2ncnc3sc(Nc4c(Cl)cccc4Cl)nc23)cc1`, the IC50 in series [3] and in series [5] was over 5000 nM each time.
Consider `Cc1nc(Nc2ccc(C(F)(F)F)cc2)c2nc(Nc3c(Cl)cccc3Cl)sc2n1`, for which the IC50 in series [5] stood at 2 nM.
With `CS(=O)(=O)c1ccccc1Nc1nc2c(Nc3ccc(C(F)(F)F)cc3)ncnc2s1`, the half-maximal inhibitory concentration (IC50) in series [3] is 234 nM; in series [5] it was 221 nM.
The like results for `FC(F)(F)c1ccc(Nc2ncnc3c2CCN(c2ncccc2C(F)(F)F)C3)cc1` were, in that order, 15 nM and 71 nM.
The like results for `CN(c1ccc(C(F)(F)F)cc1)c1ncnc2sc(Nc3c(Cl)cccc3Cl)nc12` were, in that order, over 5000 nM and over 1000 nM.
The like results for `CC(C)(C)c1ccc(Oc2ncnc3sc(Nc4c(Cl)cccc4Cl)nc23)cc1` were, in that order, over 5000 nM and over 5000 nM.
With `Cc1cccc(C)c1Nc1nc2c(Nc3ccc(C(F)(F)F)cc3)ncnc2s1`, the IC50 in series [3] was 23 nM.
With `FC(F)(F)c1ccc(Nc2nc(NCC3CC3)nc3sc(Nc4c(Cl)cccc4Cl)nc23)cc1`, the IC50 in series [3] and in series [5] was 3 nM throughout.
Usually AUC stands for the area under the concentration-time curve, a measure of exposure. Read a low AUC as low exposure. Broadly, the Cmax is the peak of the concentration-time curve. The bioavailability is dose-corrected exposure relative to a reference, in per cent. One may read the Tmax as the time from dosing to the highest level. With `OCc1cc(Cl)c(Nc2nc3c(Nc4ccc(C(F)(F)F)cc4)ncnc3s2)c(Cl)c1`, in series [6], the AUC is 638 ng·h/mL. This compound also showed a half-life in series [1] of 1.8 h. Besides, in [2], the Vd amounted to 2.9 L/kg. The same compound displayed a Cmax in series [7] of 200 nM. The compound also gave a bioavailability in series [8] of 45%. Also, in series [9], the Tmax came to 4 h. In addition, in [4], the clearance is 23.3 mL/min/kg. Also, in [5], the IC50 came to 0.5 nM.
Regarding `Clc1cccc(Cl)c1Nc1nc2c(Nc3ccccc3)ncnc2s1`, the results for the IC50 in [3] and in series [5] were 176 nM and 170 nM, respectively.
On the same counts, the results for `Cc1ccc(Nc2ncnc3sc(Nc4c(Cl)cccc4Cl)nc23)cc1` are 33 nM and 32 nM.
The like results for `FC(F)(F)c1ccc(Nc2ncnc3sc(Nc4c(Cl)cccc4Cl)nc23)cc1Cl` were, in that order, 21 nM and 9 nM.
With `Cc1cccc(Cl)c1Nc1nc2c(Nc3ccc(C(F)(F)F)cc3)ncnc2s1`, the IC50 came out at 9 nM in series [3] and 1.6 nM in [5].
Consider `FC(F)(F)c1ccc(Sc2ncnc3sc(Nc4c(Cl)cccc4Cl)nc23)cc1`, for which the IC50 in [3] and in series [5] was over 5000 nM throughout.
On to `CSc1nc(Nc2ccc(C(F)(F)F)cc2)c2nc(Nc3c(Cl)cccc3Cl)sc2n1`, for which the figures for the IC50 in series [3] and in series [5] were 224 nM and 113 nM, respectively.
On the same counts, the results for `FC(F)(F)c1ccc(Nc2ncnc3sc(Nc4ccccc4C(F)(F)F)nc23)cc1` are 74 nM and 37 nM.
The term solubility denotes the dissolved amount per volume that the medium holds. The compound `FC(F)(F)c1ccc(Nc2nc(NCCN3CCOCC3)nc3sc(Nc4c(Cl)cccc4Cl)nc23)cc1` came in with an AUC in series [6] of 196 ng·h/mL. Moreover, in series [1], the half-life is 1.8 h. Besides, the Vd in [2] was 2.8 L/kg. In addition, in [7], the Cmax was 70 nM. Moreover, the solubility at 72 h was 10 µg/mL (≈ 17.1 µM) in series [10] and 116 µg/mL (≈ 198 µM) in series [11]. The compound also returned a bioavailability in series [8] of 17%. The IC50 in series [3] came out at 39 nM; in series [5], 11 nM. In addition, in series [9], the Tmax was 2 h. In series [4], this compound gave a clearance of 30 mL/min/kg.
Turning to `O=S(=O)(c1ccc(Nc2ncnc3sc(Nc4c(Cl)cccc4Cl)nc23)cc1)N1CCCC1`, in [5], the IC50 was 0.5 nM.
Regarding `CC(C)Nc1nc(Nc2ccc(C(F)(F)F)cc2)c2nc(Nc3c(Cl)cccc3Cl)sc2n1`, the IC50 in series [3] was determined as 13 nM; in series [5] it was 9 nM.
Regarding `FC(F)(F)c1ccc(Nc2ncnc3nc(Nc4c(Cl)cccc4Cl)sc23)cc1`, the IC50 in [3] amounted to 680 nM; in [5], 864 nM.
The like results for `FC(F)(F)c1ccc(Nc2nc(N3CCCC3)nc3sc(Nc4c(Cl)cccc4Cl)nc23)cc1` were, in that order, 12 nM and 36 nM.
On the same counts, the results for `CS(=O)(=O)c1nc(Nc2ccc(C(F)(F)F)cc2)c2nc(Nc3c(Cl)cccc3Cl)sc2n1` are 274 nM and 77 nM.
On the same counts, the results for `FC(F)(F)c1ccc(Nc2nc(-c3ccccc3)nc3sc(Nc4c(Cl)cccc4Cl)nc23)cc1` are 539 nM and 104 nM.
As for `CSc1ccccc1Nc1nc2c(Nc3ccc(C(F)(F)F)cc3)ncnc2s1`, the figures for the IC50 in series [3] and in series [5] were 43 nM and 26 nM, respectively.
